Measured values: ChEMBL document CHEMBL1201862, “PubChem BioAssay data set” (2004)
Calls of active or inactive are those of the source.

Key:
[1] = target: T1, Tyrosine-protein phosphatase non-receptor type 22 (Homo sapiens, UniProt Q9Y2R2); experiment: SAR LYP1 Fluorescent Assay using OMFP substrate for In Vitro dose response studies - Set 3. [Related pubchem assays (depositor defined):AID1779, AID1784, AID2140, AID2686]; format: functional
T1 sequence (Q9Y2R2 whole entry): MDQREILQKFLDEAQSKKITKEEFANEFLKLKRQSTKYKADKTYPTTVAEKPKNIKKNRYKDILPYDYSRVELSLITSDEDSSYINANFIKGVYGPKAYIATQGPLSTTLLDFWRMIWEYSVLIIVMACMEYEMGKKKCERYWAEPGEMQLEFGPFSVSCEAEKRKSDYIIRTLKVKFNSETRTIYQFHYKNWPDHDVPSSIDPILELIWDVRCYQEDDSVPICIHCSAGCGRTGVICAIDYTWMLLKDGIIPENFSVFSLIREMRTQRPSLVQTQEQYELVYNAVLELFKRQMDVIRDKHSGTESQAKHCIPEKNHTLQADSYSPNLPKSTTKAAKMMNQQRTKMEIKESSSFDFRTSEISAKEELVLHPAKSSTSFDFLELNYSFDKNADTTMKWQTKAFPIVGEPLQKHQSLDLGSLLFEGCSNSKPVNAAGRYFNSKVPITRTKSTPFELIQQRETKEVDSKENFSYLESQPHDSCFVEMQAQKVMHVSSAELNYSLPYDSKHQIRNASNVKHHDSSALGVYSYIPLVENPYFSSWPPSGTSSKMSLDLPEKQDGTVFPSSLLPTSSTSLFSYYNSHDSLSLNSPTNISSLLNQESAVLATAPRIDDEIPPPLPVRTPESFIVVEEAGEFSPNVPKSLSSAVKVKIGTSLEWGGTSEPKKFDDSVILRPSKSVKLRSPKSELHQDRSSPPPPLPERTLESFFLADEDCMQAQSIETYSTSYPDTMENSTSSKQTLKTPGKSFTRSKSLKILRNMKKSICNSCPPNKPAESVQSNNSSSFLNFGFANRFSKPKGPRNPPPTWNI

[2] = target: Tyrosine-protein phosphatase non-receptor type 12 (Homo sapiens, UniProt Q05209); experiment: SAR Selectivity Analysis of small molecule inhibitors of PEST using pCAP in a fluorescence assay. [Related pubchem assays (depositor defined):AID1779, AID1784, AID2135]; format: functional
Tyrosine-protein phosphatase non-receptor type 12, sequence (Q05209 whole entry): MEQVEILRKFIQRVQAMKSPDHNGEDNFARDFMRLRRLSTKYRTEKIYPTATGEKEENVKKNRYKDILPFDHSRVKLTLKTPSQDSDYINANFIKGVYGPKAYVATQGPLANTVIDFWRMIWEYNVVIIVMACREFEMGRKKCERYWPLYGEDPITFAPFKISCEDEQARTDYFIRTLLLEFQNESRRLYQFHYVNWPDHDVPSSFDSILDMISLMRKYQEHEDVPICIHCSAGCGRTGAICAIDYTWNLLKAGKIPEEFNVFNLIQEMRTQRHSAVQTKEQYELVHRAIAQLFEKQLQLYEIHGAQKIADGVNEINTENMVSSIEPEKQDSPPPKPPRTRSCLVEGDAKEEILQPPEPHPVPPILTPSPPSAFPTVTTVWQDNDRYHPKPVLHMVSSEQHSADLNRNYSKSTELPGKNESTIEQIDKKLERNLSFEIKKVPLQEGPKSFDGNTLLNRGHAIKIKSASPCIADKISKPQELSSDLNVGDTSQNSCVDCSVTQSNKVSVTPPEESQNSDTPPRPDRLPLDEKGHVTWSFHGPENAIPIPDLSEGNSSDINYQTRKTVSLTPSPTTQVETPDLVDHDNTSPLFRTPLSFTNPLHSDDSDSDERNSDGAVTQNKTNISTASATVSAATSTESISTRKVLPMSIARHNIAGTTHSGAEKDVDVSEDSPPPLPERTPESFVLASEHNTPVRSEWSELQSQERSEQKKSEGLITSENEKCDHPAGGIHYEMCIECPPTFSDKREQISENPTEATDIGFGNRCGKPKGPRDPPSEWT

[3] = target: G-protein coupled receptor 35 (Homo sapiens, UniProt Q9HC97); experiment: SAR Analysis for the identification of Selective Antagonists of ERK1/2 Activity in GPR35-Overexpressing U2OS Cells. [Related pubchem assays: 2079, 2058 ]; format: functional, cell-based
G-protein coupled receptor 35, sequence (Q9HC97 whole entry): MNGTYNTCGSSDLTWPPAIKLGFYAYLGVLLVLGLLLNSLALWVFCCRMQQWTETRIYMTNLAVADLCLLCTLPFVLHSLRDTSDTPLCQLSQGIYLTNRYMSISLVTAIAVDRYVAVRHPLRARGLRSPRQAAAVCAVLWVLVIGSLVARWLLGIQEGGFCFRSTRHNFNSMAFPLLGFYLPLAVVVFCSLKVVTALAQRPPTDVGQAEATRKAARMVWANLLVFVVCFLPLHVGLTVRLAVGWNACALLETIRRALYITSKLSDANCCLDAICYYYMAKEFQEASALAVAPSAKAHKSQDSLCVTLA

[4] = target: G-protein coupled receptor 55 (Homo sapiens, UniProt Q9Y2T6); experiment: blockers of GPR55 signalling, imaged – imaging, image-based, counter-screen for GPR35 antagonist project, SAR follow-up (AID 2397); format: functional
G-protein coupled receptor 55, sequence (Q9Y2T6 whole entry): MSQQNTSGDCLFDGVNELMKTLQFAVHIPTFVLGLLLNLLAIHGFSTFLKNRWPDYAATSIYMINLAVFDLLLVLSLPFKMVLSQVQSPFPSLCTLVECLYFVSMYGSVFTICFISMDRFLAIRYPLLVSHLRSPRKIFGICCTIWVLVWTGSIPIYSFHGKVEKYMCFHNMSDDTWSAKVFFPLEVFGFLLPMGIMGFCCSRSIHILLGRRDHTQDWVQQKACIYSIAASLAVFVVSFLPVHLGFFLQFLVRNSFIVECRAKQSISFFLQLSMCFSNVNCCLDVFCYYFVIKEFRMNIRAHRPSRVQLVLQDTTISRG

[5] = target: T2, Tyrosine-protein phosphatase non-receptor type 7 (Homo sapiens, UniProt P35236); experiment: inhibition of hematopoietic tyrosine phosphatase HePTP – biochemical, set 2, SAR follow-up (AID 449736); format: functional
T2 sequence (P35236 whole entry): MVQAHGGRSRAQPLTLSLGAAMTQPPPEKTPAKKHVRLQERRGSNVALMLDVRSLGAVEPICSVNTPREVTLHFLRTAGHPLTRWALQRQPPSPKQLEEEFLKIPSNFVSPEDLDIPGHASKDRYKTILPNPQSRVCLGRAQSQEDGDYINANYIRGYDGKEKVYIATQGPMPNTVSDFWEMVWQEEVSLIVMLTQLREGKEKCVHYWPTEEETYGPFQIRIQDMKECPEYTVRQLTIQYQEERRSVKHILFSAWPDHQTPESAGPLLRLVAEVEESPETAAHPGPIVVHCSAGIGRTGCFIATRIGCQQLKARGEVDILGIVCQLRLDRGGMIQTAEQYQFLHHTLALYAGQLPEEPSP

[6] = target: T1, Tyrosine-protein phosphatase non-receptor type 22; experiment: inhibition of lymphoid tyrosine phosphatase LYP – biochemical, pCAP fluorogenic substrate, fluorescence, set 3, SAR follow-up (AID 449727); format: functional
[7] = target: T3, Mannose-6-phosphate isomerase (Homo sapiens, UniProt P34949); experiment: phosphomannose isomerase inhibition – biochemical, fluorescence intensity, confirmation (AID 1535)
T3 sequence (P34949 whole entry): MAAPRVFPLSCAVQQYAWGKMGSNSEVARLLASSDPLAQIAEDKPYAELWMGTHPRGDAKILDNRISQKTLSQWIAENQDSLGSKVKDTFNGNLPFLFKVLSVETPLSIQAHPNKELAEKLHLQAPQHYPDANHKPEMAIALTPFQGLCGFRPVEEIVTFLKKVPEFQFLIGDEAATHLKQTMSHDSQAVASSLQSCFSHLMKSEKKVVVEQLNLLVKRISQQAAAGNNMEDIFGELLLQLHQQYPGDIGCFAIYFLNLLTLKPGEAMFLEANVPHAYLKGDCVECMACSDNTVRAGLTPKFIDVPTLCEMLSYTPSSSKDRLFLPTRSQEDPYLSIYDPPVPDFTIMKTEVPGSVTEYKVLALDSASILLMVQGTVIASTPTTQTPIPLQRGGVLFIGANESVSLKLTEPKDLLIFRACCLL

[8] = target: Phosphomannomutase 2 (Homo sapiens, UniProt O15305); experiment: Counter screen SAR assay for PMM2 inhibitors via a fluorescence intensity assay. [Related pubchem assays (depositor defined):AID1545, AID1574]
Phosphomannomutase 2, sequence (O15305 whole entry): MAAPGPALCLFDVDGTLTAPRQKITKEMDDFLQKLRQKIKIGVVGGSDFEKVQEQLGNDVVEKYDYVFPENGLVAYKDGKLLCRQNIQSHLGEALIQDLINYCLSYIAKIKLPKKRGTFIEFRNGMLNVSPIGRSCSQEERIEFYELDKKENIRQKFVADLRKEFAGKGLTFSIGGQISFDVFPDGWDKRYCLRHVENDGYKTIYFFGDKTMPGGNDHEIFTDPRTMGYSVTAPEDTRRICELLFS

[9] = target: T4, Short transient receptor potential channel 4 (Mus musculus, UniProt Q9QUQ5); experiment: SAR Analysis for the identification of selective inhibits of the transient receptor potential cation channel C4 (TRPC4): Automated Electrophysiology. [Related pubchem assays (depositor defined):AID2256]; format: functional
T4 sequence (Q9QUQ5 whole entry): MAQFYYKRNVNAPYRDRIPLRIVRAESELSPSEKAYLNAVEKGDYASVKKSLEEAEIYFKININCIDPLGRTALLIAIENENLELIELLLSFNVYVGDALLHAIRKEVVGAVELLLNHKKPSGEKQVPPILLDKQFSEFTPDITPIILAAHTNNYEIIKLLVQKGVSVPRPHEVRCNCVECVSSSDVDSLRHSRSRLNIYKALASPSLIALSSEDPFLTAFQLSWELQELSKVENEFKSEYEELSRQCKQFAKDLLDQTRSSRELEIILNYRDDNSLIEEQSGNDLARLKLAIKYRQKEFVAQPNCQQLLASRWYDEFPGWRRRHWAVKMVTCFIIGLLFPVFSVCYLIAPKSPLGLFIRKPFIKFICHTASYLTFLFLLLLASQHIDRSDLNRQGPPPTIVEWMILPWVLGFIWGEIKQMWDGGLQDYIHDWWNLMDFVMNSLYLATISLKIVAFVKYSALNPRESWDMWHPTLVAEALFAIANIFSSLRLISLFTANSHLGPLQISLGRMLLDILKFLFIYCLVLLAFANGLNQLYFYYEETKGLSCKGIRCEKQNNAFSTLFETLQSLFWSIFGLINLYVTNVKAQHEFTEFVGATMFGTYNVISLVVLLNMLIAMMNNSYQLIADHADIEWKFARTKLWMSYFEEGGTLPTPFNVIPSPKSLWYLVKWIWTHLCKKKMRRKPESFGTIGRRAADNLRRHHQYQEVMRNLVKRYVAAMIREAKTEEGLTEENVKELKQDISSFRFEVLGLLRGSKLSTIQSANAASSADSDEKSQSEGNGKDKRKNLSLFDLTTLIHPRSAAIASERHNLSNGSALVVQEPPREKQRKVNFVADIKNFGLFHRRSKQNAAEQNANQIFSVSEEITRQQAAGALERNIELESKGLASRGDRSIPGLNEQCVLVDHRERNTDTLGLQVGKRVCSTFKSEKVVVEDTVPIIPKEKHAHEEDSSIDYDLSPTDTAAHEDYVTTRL

[10] = target: T4, Short transient receptor potential channel 4; experiment: potency of mouse TRPC4 calcium flux blockers – cell-based, HEK293 TRPC4/mu-opioid, DAMGO stimulus, Fluo-4, dose response (AID 492994); format: functional
[11] = target: UDP-galactopyranose mutase (Mycobacterium tuberculosis, UniProt P9WIQ1); experiment: Inhibitors of Mycobacterium tuberculosis UDP-galactopyranose mutase (UGM) enzyme Measured in Biochemical System Using Plate Reader - 2105-02_Inhibitor_Dose_CherryPick_Activity. [Related pubchem assays (depositor defined):AID504439]
UDP-galactopyranose mutase, sequence (P9WIQ1 whole entry): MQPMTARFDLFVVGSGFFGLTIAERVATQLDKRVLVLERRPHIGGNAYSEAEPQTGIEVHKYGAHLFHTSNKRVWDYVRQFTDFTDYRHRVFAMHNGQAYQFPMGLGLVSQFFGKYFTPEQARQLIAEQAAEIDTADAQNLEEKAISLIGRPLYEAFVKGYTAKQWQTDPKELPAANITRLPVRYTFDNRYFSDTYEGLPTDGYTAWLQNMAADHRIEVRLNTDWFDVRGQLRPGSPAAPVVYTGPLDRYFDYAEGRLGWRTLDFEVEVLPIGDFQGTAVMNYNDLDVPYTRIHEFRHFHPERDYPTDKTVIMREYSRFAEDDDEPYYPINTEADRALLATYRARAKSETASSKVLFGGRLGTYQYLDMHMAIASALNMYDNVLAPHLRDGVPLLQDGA

[12] = target: Ephrin type-A receptor 4 (Mus musculus, UniProt Q03137); experiment: EphA4 ligand-binding antagonists – biochemical, colorimetric, mouse EphA4, primary screen (AID 689); format: functional
Ephrin type-A receptor 4, sequence (Q03137 whole entry): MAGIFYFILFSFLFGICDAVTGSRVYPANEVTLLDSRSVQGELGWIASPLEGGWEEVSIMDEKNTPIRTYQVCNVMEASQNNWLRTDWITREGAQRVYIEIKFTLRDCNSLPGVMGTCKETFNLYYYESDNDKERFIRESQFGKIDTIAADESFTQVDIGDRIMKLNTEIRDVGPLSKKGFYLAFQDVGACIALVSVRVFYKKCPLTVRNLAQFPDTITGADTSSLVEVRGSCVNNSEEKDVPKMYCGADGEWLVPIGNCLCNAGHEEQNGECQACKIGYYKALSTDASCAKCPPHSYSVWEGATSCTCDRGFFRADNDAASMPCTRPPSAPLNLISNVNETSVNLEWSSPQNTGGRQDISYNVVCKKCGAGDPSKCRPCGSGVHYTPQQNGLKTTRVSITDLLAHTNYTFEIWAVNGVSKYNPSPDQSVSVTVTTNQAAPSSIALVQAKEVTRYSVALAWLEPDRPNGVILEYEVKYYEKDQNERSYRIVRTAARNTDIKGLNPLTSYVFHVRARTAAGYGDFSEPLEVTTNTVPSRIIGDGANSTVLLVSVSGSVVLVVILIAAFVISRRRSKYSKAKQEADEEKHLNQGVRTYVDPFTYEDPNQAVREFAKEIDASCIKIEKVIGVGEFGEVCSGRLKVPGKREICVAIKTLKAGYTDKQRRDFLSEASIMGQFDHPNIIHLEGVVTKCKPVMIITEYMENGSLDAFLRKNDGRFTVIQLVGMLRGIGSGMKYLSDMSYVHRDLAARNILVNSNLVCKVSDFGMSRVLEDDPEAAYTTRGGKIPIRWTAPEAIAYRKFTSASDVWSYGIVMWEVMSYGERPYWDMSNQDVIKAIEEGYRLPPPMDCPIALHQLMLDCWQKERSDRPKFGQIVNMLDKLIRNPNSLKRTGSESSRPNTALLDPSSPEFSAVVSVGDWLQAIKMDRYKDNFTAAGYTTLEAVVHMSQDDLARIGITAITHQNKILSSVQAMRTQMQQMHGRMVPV

[13] = target: ORF 73 (Human herpesvirus 8, UniProt O40947); experiment: KSHV LANA DNA-binding disruption – biochemical, fluorescence polarization, cherry-picked samples, dose response (AID 504725); set-up: species or system Human gammaherpesvirus 8;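 note: fluorescence polarization of a labeled DNA duplex reporting LANA DNA binding; potency is for inhibitors that block LANA binding to the DNA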
ORF 73, sequence (O40947 whole entry): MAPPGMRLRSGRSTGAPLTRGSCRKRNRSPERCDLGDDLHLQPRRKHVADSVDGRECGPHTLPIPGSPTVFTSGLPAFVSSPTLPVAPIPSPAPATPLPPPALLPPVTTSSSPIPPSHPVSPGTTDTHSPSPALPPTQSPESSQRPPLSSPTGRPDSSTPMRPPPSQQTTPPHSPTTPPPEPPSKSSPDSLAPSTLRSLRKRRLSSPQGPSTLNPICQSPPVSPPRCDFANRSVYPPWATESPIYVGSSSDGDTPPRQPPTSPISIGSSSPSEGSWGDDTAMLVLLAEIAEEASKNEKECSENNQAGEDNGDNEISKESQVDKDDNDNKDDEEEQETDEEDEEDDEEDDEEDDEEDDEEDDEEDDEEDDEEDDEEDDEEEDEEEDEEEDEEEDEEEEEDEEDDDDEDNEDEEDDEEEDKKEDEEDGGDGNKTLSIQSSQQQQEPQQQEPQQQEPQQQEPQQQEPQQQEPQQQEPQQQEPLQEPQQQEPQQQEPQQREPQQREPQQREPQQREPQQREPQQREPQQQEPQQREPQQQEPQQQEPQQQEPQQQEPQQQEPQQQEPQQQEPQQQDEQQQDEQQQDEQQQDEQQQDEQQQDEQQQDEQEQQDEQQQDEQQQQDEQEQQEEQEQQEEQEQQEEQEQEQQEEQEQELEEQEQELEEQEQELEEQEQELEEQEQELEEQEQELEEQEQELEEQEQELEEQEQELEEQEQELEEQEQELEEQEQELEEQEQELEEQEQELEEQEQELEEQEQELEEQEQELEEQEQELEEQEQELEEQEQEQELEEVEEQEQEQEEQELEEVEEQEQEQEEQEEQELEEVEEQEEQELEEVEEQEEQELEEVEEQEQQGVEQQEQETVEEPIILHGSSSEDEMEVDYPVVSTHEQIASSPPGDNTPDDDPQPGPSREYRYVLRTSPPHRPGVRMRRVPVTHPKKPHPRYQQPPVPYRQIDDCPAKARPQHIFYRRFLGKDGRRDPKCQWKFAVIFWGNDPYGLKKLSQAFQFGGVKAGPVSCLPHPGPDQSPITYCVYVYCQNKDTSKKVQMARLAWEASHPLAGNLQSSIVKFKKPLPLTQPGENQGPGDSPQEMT

[14] = system: HeLa; experiment: viability loss in HeLa cells – cell-based, 24 h, cherry-picked samples, cytotoxicity control, dose response (AID 504726); format: functional; settings: Homo sapiens;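 note: potency for cytotoxicity as loss of luminescence signal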
[15] = target: T5, Corticotropin-releasing factor receptor 2/Corticotropin-releasing factor-binding protein (Homo sapiens, UniProt P24387+Q13324); experiment: activators of CRF receptor 2 with binding protein – uHTS hits, confirmation (AID 602473); format: functional; settings: read-out: EC50_Mean
T5 sequence (Q13324 whole entry): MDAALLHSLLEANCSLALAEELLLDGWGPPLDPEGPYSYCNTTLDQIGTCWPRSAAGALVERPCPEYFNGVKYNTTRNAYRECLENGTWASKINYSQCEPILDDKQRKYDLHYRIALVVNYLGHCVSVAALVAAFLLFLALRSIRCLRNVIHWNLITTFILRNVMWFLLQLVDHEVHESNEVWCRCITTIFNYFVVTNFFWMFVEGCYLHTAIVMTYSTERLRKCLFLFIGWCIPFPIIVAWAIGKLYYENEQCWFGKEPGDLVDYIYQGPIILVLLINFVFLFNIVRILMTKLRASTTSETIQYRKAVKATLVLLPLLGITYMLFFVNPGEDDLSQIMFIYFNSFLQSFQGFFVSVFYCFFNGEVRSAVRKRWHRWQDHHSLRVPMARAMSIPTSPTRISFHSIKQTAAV
T5 sequence (P24387 whole entry): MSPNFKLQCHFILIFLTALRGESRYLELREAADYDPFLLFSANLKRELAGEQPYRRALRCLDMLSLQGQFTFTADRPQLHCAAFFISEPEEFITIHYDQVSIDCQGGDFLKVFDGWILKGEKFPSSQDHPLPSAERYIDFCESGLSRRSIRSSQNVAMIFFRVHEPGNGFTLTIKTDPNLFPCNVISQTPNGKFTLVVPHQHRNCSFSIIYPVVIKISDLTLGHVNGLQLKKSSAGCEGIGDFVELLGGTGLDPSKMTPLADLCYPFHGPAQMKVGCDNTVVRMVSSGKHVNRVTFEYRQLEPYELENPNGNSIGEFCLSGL

Compound: O=C(CCCN1C(=O)/C(=C/c2ccc3c(c2)OCO3)SC1=S)Nc1ccc(C(=O)O)c(O)c1
- IC50 [1]: > 100 µM (inactive)
- IC50 [2]: 39.4 µM (active)
- IC50 [3]: 2.09 µM (active)
- IC50 [4]: > 32 µM (inactive)
- IC50 [5]: 8.75 µM (active)
- IC50 [6]: 73.1 µM (active)

Compound: COc1cc(N=c2ssnc2Cl)cc(OC)c1OC
- IC50 [7]: 2.91 µM (active)
- IC50 [8]: > 100 µM (inactive)

Compound: Cc1cc(N2CCOCC2)nc2ccccc12
- IC50 [9]: 140 µM (inactive)
- IC50 [10]: 39 µM (active)

Compound: CCCCCn1nc(-c2ccccc2)c2nc3ccccc3nc21
- AC50 [11]: 31.7 µM (active)
- IC50 [12]: 6.11 µM (active)
- AC50 [13]: 56.5 µM (active)
- AC50 [14]: > 350 µM (inactive)
- EC50 [15]: 4.97 µM (active)
